Patent US9326539B2, “Compositions comprising dietary fat complexers and methods for their use” (Soho Flordis International Pty. Ltd., priority 2002, dated 2016)

Legend:
[1] = cited from earlier work
[2] = human volunteer on high fat diet with α-cyclodextrin: weight loss and blood parameters; type: in vivo; details: one volunteer; for HDL cholesterol: baseline 0.97; for Triglycerides: baseline 2.76; for Insulin Resistance: baseline 2.85; for Cholesterol: baseline 4.76
Experimental: The α-cyclodextrin was added to the subject's diet in a proportion of one gram Of α-cyclodextrin for every nine grams of fat that were estimated to be consumed by the subject. […] 200 days, approximately 6 months— By 6 months the subject's body weight was reduced by 32 pounds. In addition to the weight loss, within the first two weeks of the study, the subject's elevated blood pressure fell to the point where they were forced to reduce their prescribed beta-blacker by one-third. Their blood triglycerides were also assayed during this time and their blood serum triglyceride levels were decreased by 23% within the first month and 46% by the end of six months.

[3] = Wistar rat feeding study: fecal fat content (total lipid of feces); type: in vivo, Wistar rats; details: collected feces, final three days
Excerpt: The rats were housed as pairs for five weeks prior to being placed in individual metabolic cages for the sixth week of the study. All of the rats' feces were collected during the final three days of the study. At the end of the sixth week of the study period the rats were sacrificed by decapitation after a brief exposure to carbon dioxide gas. Trunk blood and the livers were collected from each animal. The rest of the body was eviscerated and all visible fat from the internal cavity was collected and weighed. The carcass was frozen for body composition analysis at a later date.
Total lipid determinations were performed on the collected feces using standard techniques Folch et al. J Biol. Chem 226: 497-509 (1957) incorporated by reference. […] On average this increase was approximately 25%. […] The latter observation was confirmed by visual inspection of the feces.

[4] = in vitro study of vegetable oil, water and cyclodextrin: band of wax-like complex; type: physicochemical; details: vegetable oil 4 g, water 6 g, varying amounts of cyclodextrin (100-2,000 mg), centrifuged
Experimental: FIG. 9A-9C depicts the results of an in vitro study of vegetable oil (4 g), water (6 g) (with added food coloring for contrast) and varying amounts of (A) α-cyclodextrin (100-2,000 mg, right to left), (B) β-cyclodextrin or (C) γ-cyclodextrin. A band of “wax-like” material layered between the oil and aqueous phases is apparent in the tubes. […] Note the increasing size (right to left) of a white layer of un-reacted α-cyclodextrin in the bottom of the tubes. This material is displaced from solution by either the oil or the α-cyclodextrin-oil complex. These tubes were centrifuged in order to improve the definition of the layers. The “wax-like” complex is of such a consistency that all of the tubes except for the furthest two to the right can be inverted without leakage of the aqueous phase around the complex.
FIGS. 9A-9C depict the results of an in vitro study of vegetable oil (4 g), water (6 g) (with added food coloring for contrast) and varying amounts of (A) α-cyclodextrin (100-2,000 mg, right to left), (B) β-cyclodextrin or (C) γ-cyclodextrin. A band of “wax-like” material layered between the oil and aqueous phases is apparent in the tubes. […] Note the increasing size (right to left) of a white layer of un-reacted α-cyclodextrin in the bottom of the tubes. This material is displaced from solution by either the oil or the α-cyclodextrin-oil complex. These tubes were centrifuged in order to improve the definition of the layers. The “wax-like” complex is of such a consistency that all of the tubes in 9A except for the furthest two to the right can be inverted without leakage of the aqueous phase around the complex.
Thus one would not have expected α-cyclodextrin to complex triglyceride molecules because the molecules would not fit within the pore of the α α-cyclodextrin. […] The white substance in the bottom of the tubes is precipitated cyclodextrin.

[5] = volunteers fed high fat breakfast: serum triglyceride levels; type: in vivo, human
Experimental: To determine the effect of α-cyclodextrin on triglyceride levels, eight volunteers were fed on two consecutive days a two-egg cheese (54 g) omelet and a milkshake containing a total of 47 g of fat after an overnight fast. On the first day the meal also contained approximately 5 g of α-cyclodextrin. Blood samples (10 ml) from each volunteer taken via an in-dwelling venous catheter immediately prior the meal (zero-time) and at 1, 2 and 3 hours after the meal was consumed and were assayed for serum triglyceride levels. The zero-time sample were used as the baseline to calculate the percentage change in blood serum triglyceride levels of the human volunteers at one, two and three hours. FIG. 7 illustrates the data collected from the volunteers.
FIG. 7 also contains data from three of the volunteers who had partaken in an earlier two-hour study with a smaller meal (denoted “*”).

[6] = two additional volunteers, about 2 g α-cyclodextrin per meal: cholesterol, LDL, cholesterol/HDL, triglycerides; type: in vivo, human
Experimental: α-cyclodextrin was also added to the diet of two additional volunteers. The α-cyclodextrin was added in a proportion such that each meal comprised about 2 g of α-cyclodextrin. Table 3 sets forth the effects of the α-cyclodextrin on reducing the levels of cholesterol, LDL, cholesterol/HDL ratio and serum triglycerides. It is of note that both of these volunteers, as well as the initial volunteer, had been and still were taking one of the statin pharmaceuticals for lowering their blood serum cholesterol. All three volunteers were taking different statins. In addition volunteer one was taking 3 g/d niacin which they reduced by 50% in the first two weeks of the study because of the unpleasant side effects of this medication.

[7] = volunteer one, 2.5 months, on statin and niacin
[8] = volunteer two, 6 months, on statin

SMILES: OC[C@H]1O[C@@H]2O[C@H]3[C@H](O)[C@@H](O)[C@@H](O[C@H]4[C@H](O)[C@@H](O)[C@@H](O[C@H]5[C@H](O)[C@@H](O)[C@@H](O[C@H]6[C@H](O)[C@@H](O)[C@@H](O[C@H]7[C@H](O)[C@@H](O)[C@@H](O[C@H]1[C@H](O)[C@H]2O)O[C@@H]7CO)O[C@@H]6CO)O[C@@H]5CO)O[C@@H]4CO)O[C@@H]3CO [α-cyclodextrin]
- weight gain of rats versus control diet ([1]; JP 05-298849, diet with 16% a-cyclodextrin, or 1% linolenic acid, or 14% α-cyclodextrin and 2% linolenic acid): gain weight approximately the same as rats fed a control diet
- body weight gain of rats versus control diets ([1]; Kaewprasert et al. 2001, 5% α-cyclodextrin diet, cyclodextrin:fat about 1:1.4): not significantly different
- weight gain of rats ([1]; S60-149752, diet with 14% w/w α-cyclodextrin, or 14% w/w α-cyclodextrin and 0.5% w/w linolenic acid): little effect on weight gain
- body weight reduction ([2]; initial weight 267 pounds, 1 g α-cyclodextrin per 9 g fat, by 6 months): 32 pounds
- Body Mass Index ([2]; 1 month): 39.17
- Hip ([2]; 1 month): 127 cm
- Waist ([2]; 1 month): 124 cm
- HDL cholesterol ([2]; 1 month): 1.00 mmol/L
- Triglycerides ([2]; 1 month): 2.13 mmol/L
- Insulin Resistance ([2]; 1 month): 2.13
- Cholesterol ([2]; 1 month): 4.76 mmol/L
- Body Mass Index ([2]; 6 months): 37.27
- Hip ([2]; 6 months): 117 cm
- Waist ([2]; 6 months): 117 cm
- HDL cholesterol ([2]; 6 months): 1.11 mmol/L
- Triglycerides ([2]; 6 months): 1.50 mmol/L
- Insulin Resistance ([2]; 6 months): 1.35
- Cholesterol ([2]; 6 months): 4.0 mmol/L
- decrease of blood serum triglyceride levels ([2]; by the end of six months): 46%
- decrease of blood serum triglyceride levels ([2]; within the first month): 23%
- elevated blood pressure ([2]; within the first two weeks): fell
- visual inspection of feces [3]: no indication of diarrhea
- band of wax-like material (complexed fat) between oil and aqueous phases [4]: maximum in the tube labeled 10% (400 mg α-cyclodextrin/4 g oil)
- increase in serum triglyceride levels after meal ([5]; eight volunteers, meal with 47 g fat and approximately 5 g α-cyclodextrin, 1, 2 and 3 hours, p<0.08): less
- change in triglyceride levels after meal ([5]; three volunteers, earlier two-hour study with smaller meal): less
- Cholesterol (change) [6, 7]: −18.5%
- Cholesterol/HDL (change) [6, 7]: −16.1%
- LDL (change) [6, 7]: −25.6%
- TG (change) [6, 7]: −22.2%
- Cholesterol (change) [6, 8]: −10.2%
- Cholesterol/HDL (change) [6, 8]: −8.8%
- LDL (change) [6, 8]: −15.0
- TG (change) [6, 8]: −37.5%
